In US20050075375A1 (priority 2003, published 2005):

The compounds below were run on monocistronic NK5.1 HCV replicon in Huh7 cells (assay: HCV replicon assay, monocistronic replicon cell line). Settings: Hepatitis C virus, Huh-7; monocistronic NK5.1 HCV replicon in Huh7 cells; median value; read-out: Mono EC50 Median.
Type: cell-based, hepatitis C virus
Procedure, shortened: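 Huh7 cells carrying the monocistronic NK5.1 replicon, seeded 24 h before dosing, were exposed to six-point half-log compound series (0.6% DMSO) for 3 days at 37 °C. Replicon RNA was quantified by TaqMan RT-PCR, normalised to GAPDH and compared with DMSO controls to derive EC50.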
Compound `O=[N+]([O-])c1cccc(-c2nc(-c3ccccn3)n[nH]2)c1` [Compound 364, 2-[5-(3-Nitro-phenyl)-1H-[1,2,4]triazol-3-yl]-pyridine] has an EC50 greater than 32 µM. In the case of `CCN(CC)c1ccc(-c2nc(-c3ccccn3)n[nH]2)c(O)c1` [Compound 365, 5-Diethylamino-2-(5-pyridin-2-yl-2H-[1,2,4]triazol-3-yl)-phenol], the EC50 is reported as greater than 32 µM. For `c1ccc2c(-c3nc(-c4nccc5ccccc45)n[nH]3)cccc2c1` [Compound 366, 1-(5-Naphthalen-1-yl-1H-[1,2,4]triazol-3-yl)-isoquinoline], the EC50 was greater than 32 µM. With `CC(C)(C)c1ccc(O)c(-c2nc(-c3nccc4ccccc34)n[nH]2)c1` [Compound 367, 4-tert-Butyl-2-(5-isoquinolin-1-yl-2H-[1,2,4]triazol-3-yl)-phenol] the EC50 was greater than 32 µM. With `O=[N+]([O-])c1ccc(O)c(-c2nc(-c3nccc4ccccc34)n[nH]2)c1` [Compound 368, 4-Nitro-2-(5-isoquinolin-1-yl-2H-[1,2,4]triazol-3-yl)-phenol] the EC50 was greater than 32 µM. `Oc1ccc(F)cc1-c1nc(-c2nccc3ccccc23)n[nH]1` [Compound 369, 4-Fluoro-2-(5-isoquinolin-1-yl-2H-[1,2,4]triazol-3-yl)-phenol] showed an EC50 of 3.5 µM. With `COc1ccc(O)c(-c2nc(-c3nccc4ccccc34)n[nH]2)c1` [Compound 370, 4-Methoxy-2-(5-isoquinolin-1-yl-2H-[1,2,4]triazol-3-yl)-phenol] the EC50 was 2.9 µM. `Oc1ccc(Cl)cc1-c1nc(-c2nccc3ccccc23)n[nH]1` [Compound 371, 4-Chloro-2-(5-isoquinolin-1-yl-2H-[1,2,4]triazol-3-yl)-phenol] was tested, and the EC50 was greater than 19 µM. Work on `CCOc1cccc(-c2nc(-c3nccc4ccccc34)n[nH]2)c1O` [Compound 372, 6-Ethoxy-2-(5-isoquinolin-1-yl-2H-[1,2,4]triazol-3-yl)-phenol] yielded an EC50 greater than 19 µM. `Oc1cc(OCc2ccccc2)ccc1-c1nc(-c2nccc3ccccc23)n[nH]1` [Compound 373, 5-Benzyloxy-2-(5-isoquinolin-1-yl-2H-[1,2,4]triazol-3-yl)-phenol] was tested, and the EC50 was greater than 19 µM. `Oc1ccc(Br)cc1-c1nc(-c2nccc3ccccc23)n[nH]1` [Compound 374, 4-Bromo-2-(5-isoquinolin-1-yl-2H-[1,2,4]triazol-3-yl)-phenol] showed an EC50 greater than 19 µM. With `Cc1ccc(O)c(-c2nc(-c3nccc4ccccc34)n[nH]2)c1` [Compound 375, 4-Methyl-2-(5-isoquinolin-1-yl-2H-[1,2,4]triazol-3-yl)-phenol] the EC50 was greater than 19 µM. For `COc1ccc(-c2nc(-c3nccc4ccccc34)n[nH]2)c(O)c1` [Compound 376, 5-Methoxy-2-(5-isoquinolin-1-yl-2H-[1,2,4]triazol-3-yl)-phenol], the EC50 was greater than 19 µM. `Oc1ccccc1-c1nc(-c2nccc3ccccc23)n[nH]1` [Compound 377, 2-(5-isoquinolin-1-yl-2H-[1,2,4]triazol-3-yl)-phenol] gave an EC50 greater than 19 µM. `COc1cccc(-c2nc(-c3nccc4ccccc34)n[nH]2)c1O` [Compound 378, 6-Methoxy-2-(5-isoquinolin-1-yl-2H-[1,2,4]triazol-3-yl)-phenol] gave an EC50 of 16 µM. In the case of `O=[N+]([O-])c1cccc(-c2nc(-c3nccc4ccccc34)n[nH]2)c1` [Compound 379], the EC50 is reported as greater than 19 µM. `COc1ccc(OC)c(-c2nc(-c3nccc4ccccc34)n[nH]2)c1` [Compound 380] was tested, and the EC50 was greater than 19 µM. Work on `Oc1ccc(O)c(-c2nc(-c3nccc4ccccc34)n[nH]2)c1` [Compound 381, 4-Hydroxy-2-(5-isoquinolin-1-yl-2H-[1,2,4]triazol-3-yl)-phenol] yielded an EC50 of 8.5 µM. Compound `COc1cccc(-c2nc(-c3nccc4ccccc34)n[nH]2)c1` [Compound 382] has an EC50 greater than 19 µM. `COc1ccc(F)c(-c2nc(-c3nccc4ccccc34)n[nH]2)c1` [Compound 383] gave an EC50 greater than 19 µM. `Oc1ccc2ccccc2c1-c1nc(-c2nccc3ccccc23)n[nH]1` [Compound 385, 1-(5-isoquinolin-1-yl-2H-[1,2,4]triazol-3-yl)-naphthalen-2-ol] was tested, and the EC50 was greater than 19 µM. `Oc1ccc(O)c(-c2nc(-c3ccccn3)n[nH]2)c1` [Compound 386, 4-Hydroxy-2-(5-pyridin-2-yl-2H-[1,2,4]triazol-3-yl)-phenol] showed an EC50 greater than 19 µM. `COc1cccc(-c2nc(-c3ccccn3)n[nH]2)c1` [Compound 387, 2-[5-(3-Methoxy-phenyl)-1H-[1,2,4]triazol-3-yl]-pyridine] gave an EC50 greater than 19 µM. In the case of `COc1ccc(F)c(-c2nc(-c3ccccn3)n[nH]2)c1` [Compound 388, 2-[5-(2-Fluoro-5-methoxy-phenyl)-1H-[1,2,4]triazol-3-yl]-pyridine], the EC50 is reported as greater than 19 µM. For `CC(C)c1ccc(-c2nc(-c3ccccn3)n[nH]2)cc1` [Compound 389, 2-[5-(4-Isopropyl-phenyl)-1H-[1,2,4]triazol-3-yl]-pyridine], the EC50 was greater than 19 µM. `Cc1cccc(-c2n[nH]c(-c3cccc4ccccc34)n2)n1` [Compound 390, 2-Methyl-6-(5-naphthalen-1-yl-1H-[1,2,4]triazol-3-yl)-pyridine] was tested, and the EC50 was greater than 19 µM. `Cc1cccc(-c2n[nH]c(-c3cc(C(C)(C)C)ccc3O)n2)n1` [Compound 391, 4-tert-Butyl-2-[5-(6-methyl-pyridin-2-yl)-2H-[1,2,4]triazol-3-yl]-phenol] gave an EC50 greater than 19 µM. `Cc1cccc(-c2n[nH]c(-c3cc([N+](=O)[O-])ccc3O)n2)n1` [Compound 392, 4-Nitro-2-(5-(6-methyl-pyridin-2-yl)-2H-[1,2,4]triazol-3-yl)-phenol] was tested, and the EC50 was greater than 19 µM. In the case of `Cc1cccc(-c2n[nH]c(-c3cc(F)ccc3O)n2)n1` [Compound 393, 4-Fluoro-2-(5-(6-methyl-pyridin-2-yl)-2H-[1,2,4]triazol-3-yl)-phenol], the EC50 is reported as greater than 19 µM. With `COc1ccc(O)c(-c2nc(-c3cccc(C)n3)n[nH]2)c1` [Compound 394, 4-Methoxy-2-(5-(6-methyl-pyridin-2-yl)-2H-[1,2,4]triazol-3-yl)-phenol] the EC50 was greater than 19 µM. Work on `Cc1cccc(-c2n[nH]c(-c3cc(Cl)ccc3O)n2)n1` [Compound 395, 4-Chloro-2-(5-(6-methyl-pyridin-2-yl)-2H-[1,2,4]triazol-3-yl)-phenol] yielded an EC50 greater than 19 µM. With `CCOc1cccc(-c2nc(-c3cccc(C)n3)n[nH]2)c1O` [Compound 396, 6-Ethoxy-2-(5-(6-methyl-pyridin-2-yl)-2H-[1,2,4]triazol-3-yl)-phenol] the EC50 was greater than 19 µM. Compound `Cc1cccc(-c2n[nH]c(-c3ccc(OCc4ccccc4)cc3O)n2)n1` [Compound 397, 5-Benzyloxy-2-(5-(6-methyl-pyridin-2-yl)-2H-[1,2,4]triazol-3-yl)-phenol] has an EC50 greater than 19 µM. For `Cc1cccc(-c2n[nH]c(-c3ccc(-c4ccccc4)c(F)c3)n2)n1` [Compound 398, 2-[5-(2-Fluoro-biphenyl-4-yl)-1H-[1,2,4]triazol-3-yl]-6-methyl-pyridine], the EC50 was greater than 19 µM. In the case of `Cc1cccc(-c2n[nH]c(-c3cc(Br)ccc3O)n2)n1` [Compound 399, 4-Bromo-2-(5-(6-methyl-pyridin-2-yl)-2H-[1,2,4]triazol-3-yl)-phenol], the EC50 is reported as greater than 19 µM. With `Cc1ccc(O)c(-c2nc(-c3cccc(C)n3)n[nH]2)c1` [Compound 400, 4-Methyl-2-(5-(6-methyl-pyridin-2-yl)-2H-[1,2,4]triazol-3-yl)-phenol] the EC50 was greater than 19 µM. `COc1ccc(-c2nc(-c3cccc(C)n3)n[nH]2)c(O)c1` [Compound 401, 5-Methoxy-2-(5-(6-methyl-pyridin-2-yl)-2H-[1,2,4]triazol-3-yl)-phenol] was tested, and the EC50 was greater than 19 µM. For `Cc1cccc(-c2n[nH]c(-c3ccccc3O)n2)n1` [Compound 402, 2-(5-(6-methyl-pyridin-2-yl)-2H-[1,2,4]triazol-3-yl)-phenol], the EC50 was greater than 19 µM. Work on `COc1cccc(-c2nc(-c3cccc(C)n3)n[nH]2)c1O` [Compound 403, 6-Methoxy-2-(5-(6-methyl-pyridin-2-yl)-2H-[1,2,4]triazol-3-yl)-phenol] yielded an EC50 greater than 19 µM. With `Cc1cccc(-c2n[nH]c(-c3cccc([N+](=O)[O-])c3)n2)n1` [Compound 404, 6-Methyl-2-[5-(3-nitro-phenyl)-1H-[1,2,4]triazol-3-yl]-pyridine] the EC50 was greater than 19 µM. `COc1cccc(-c2nc(-c3cccc(C)n3)n[nH]2)c1` [Compound 405, 2-[5-(3-Methoxy-phenyl)-1H-[1,2,4]triazol-3-yl]-6-methyl-pyridine] showed an EC50 greater than 19 µM. In the case of `COc1ccc(F)c(-c2nc(-c3cccc(C)n3)n[nH]2)c1` [Compound 406, 2-[5-(2-Fluoro-5-methoxy-phenyl)-1H-[1,2,4]triazol-3-yl]-6-methyl-pyridine], the EC50 is reported as greater than 19 µM. In the case of `COc1ccc([N+](=O)[O-])cc1-c1nc(-c2cccc(C)n2)n[nH]1` [Compound 407, 2-[5-(2-Methoxy-5-nitro-phenyl)-1H-[1,2,4]triazol-3-yl]-6-methyl-pyridine], the EC50 is reported as greater than 19 µM. For `Cc1cccc(-c2n[nH]c(-c3ccc(C(C)C)cc3)n2)n1` [Compound 408, 2-[5-(4-Isopropyl-phenyl)-1H-[1,2,4]triazol-3-yl]-6-methyl-pyridine], the EC50 was greater than 19 µM. Work on `Cc1cccc(-c2n[nH]c(-c3c(O)ccc4ccccc34)n2)n1` [Compound 409, 1-(5-(6-methyl-pyridin-2-yl)-2H-[1,2,4]triazol-3-yl)-naphthalen-2-ol] yielded an EC50 greater than 19 µM. `FC(F)(F)c1ccncc1-c1n[nH]c(-c2cccc3ccccc23)n1` [Compound 410, 3-(5-Naphthalen-1-yl-1H-[1,2,4]triazol-3-yl)-4-trifluoromethyl-pyridine] showed an EC50 of 2.9 µM. With `CC(C)(C)c1ccc(O)c(-c2nc(-c3cnccc3C(F)(F)F)n[nH]2)c1` [Compound 411, 4-tert-Butyl-2-[5-(4-trifluoromethyl-pyridin-3-yl)-2H-[1,2,4]triazol-3-yl]-phenol] the EC50 was 10 µM. Compound `O=[N+]([O-])c1ccc(O)c(-c2nc(-c3cnccc3C(F)(F)F)n[nH]2)c1` [Compound 412, 4-Nitro-2-[5-(4-trifluoromethyl-pyridin-3-yl)-2H-[1,2,4]triazol-3-yl]-phenol] has an EC50 greater than 19 µM. In the case of `Oc1ccc(F)cc1-c1nc(-c2cnccc2C(F)(F)F)n[nH]1` [Compound 413, 4-Fluoro-2-[5-(4-trifluoromethyl-pyridin-3-yl)-2H-[1,2,4]triazol-3-yl]-phenol], the EC50 is reported as greater than 19 µM.
